Patent US9375434B2, “Antitumor effect potentiator composed of imidazooxazine compound” (Taiho Pharmaceutical Co., Ltd., priority 2012, dated 2016)

Columns and labels:
[1] = system: Human ovarian cancer cell line (A2780); assay: Potentiation of antitumor effect of carboplatin, A2780 subcutaneous implant (Test Example 3); assay type: in vivo, nude rats; details: carboplatin 50 mg/kg/day i.v. day 1, 8
Protocol: In the figure, the asterisk represents a result having a statistically significant difference compared with the single-drug administration group. FIG. 1 and Table 10 show the results. […] Carboplatin was prepared by diluting a […] injection (Bristol-Myers Squibb, 50 mg/5 mL) two-fold with physiological saline to enable administration at a carboplatin dose of 50 mg/kg/day. Further, the test liquid of Compound-I was prepared by adjusting its dose to 16 mg/kg/day. […] The single-drug administration group was administered 0.5% HPMC or a physiological saline as a vehicle instead of Compound-I or carboplatin. […] FIG. 5 and Table 12 show the results. […] The effect of the combined administration was also statistically determined in the same manner as in Test Example 1. In the figure and the table, the asterisk represents a result having a statistically significant difference compared with the single-drug administration group.

[2] = system: Human ovarian cancer cell line (A2780); assay: Potentiation of antitumor effect of doxorubicin, A2780 subcutaneous implant in nude mice (Test Example 6); assay type: in vivo, BALB/cA Jcl-nu/nu mice; details: doxorubicin 7 mg/kg/day day 1, 8
Protocol: In the groups receiving only Compound-I, the test liquid was prepared by diluting Compound-I with 0.5% HPMC to enable administration at a Compound-I dose of 16 mg/kg/day. […] The effect of the combined administration was also statistically determined in the same manner as in Test Example 1.

[3] = system: Human stomach cancer cell line (NCI-N87); assay: Potentiation of antitumor effect of everolimus, NCI-N87 subcutaneous implant in nude mice (Test Example 7); assay type: in vivo, BALB/cA Jcl-nu/nu mice; details: everolimus 5 mg/kg/day p.o. day 1-14
Protocol: As an index of antitumor effect, the TV at Day 15 was measured for each of the drug administration groups, and the relative tumor volume (RTV) relative to Day 1 and T/C (%) were calculated by the following formulas to evaluate the antitumor effect. […] In the figure, the asterisk represents a result having a statistically significant difference compared with the single-drug administration group.
FIG. 1 and Table 10 show the results. TV (mm^3)=(length×width^2)/2 RTV=(TV at Day 15)/(TV at Day 1) T/C(%)=(average RTV value of the test liquid administration group)/(average RTV value of the control group)×100
Human stomach cancer cell line (NCI-N87) was subcutaneously implanted into the right flank of 7-week-old male BALB/cA Jcl-nu/nu mice, and was used in the same manner as in Test Example 1.
In the group receiving only everolimus (IS Chemical Technology), the test liquid was prepared to enable administration at an everolimus dose of 5 mg/kg/day. A vehicle of 5% ethyl alcohol/5% PEG400/4% Tween 20/86% distilled water was used. In the groups receiving only Compound-I, the test liquid was prepared by diluting Compound-I with 0.5% HPMC to enable administration at a Compound-I dose of 16 mg/kg/day. In the combined administration group, Compound-I was administered at a dose of 16 mg/kg/day, and everolimus was administered at a dose of 5 mg/kg/day. Both Compound-I and everolimus were orally administered once a day for 14 days from Day 1, and the evaluation was performed in the same manner as in Test Example 1. FIG. 13 and Table 16 show the results.
In the figure and the table, the asterisk represents a result having a statistically significant difference compared with the single-drug administration group.

[4] = system: Human stomach cancer cell line (NCI-N87); assay: Potentiation of antitumor effect of lapatinib, NCI-N87 subcutaneous implant in nude mice (Test Example 4); assay type: in vivo, BALB/cA Jcl-nu/nu mice; details: lapatinib 100 mg/kg/day p.o. day 1-14 (q.d.)
Protocol: In the figure, the asterisk represents a result having a statistically significant difference compared with the single-drug administration group. FIG. 1 and Table 10 show the results. […] Lapatinib was prepared by adjusting its dose to 100 mg/kg/day. Further, the test liquid of Compound-I was prepared by adjusting its dose to 16 mg/kg/day. […] The effect of the combined administration was also statistically determined in the same manner as in Test Example 1. In the figure and the table, the asterisk represents a result having a statistically significant difference compared with the single-drug administration group. FIG. 7 and Table 13 show the results.

[5] = system: Human ovarian cancer cell line (A2780); assay: Potentiation of antitumor effect of irinotecan, A2780 subcutaneous implant in nude mice (Test Example 5); assay type: in vivo, BALB/cA Jcl-nu/nu mice; details: irinotecan 75 mg/kg/day day 1, 8; route printed p.o.
Protocol: As an index of antitumor effect, the TV at Day 15 was measured for each of the drug administration groups, and the relative tumor volume (RTV) relative to Day 1 and T/C (%) were calculated by the following formulas to evaluate the antitumor effect.
TV (mm^3)=(length×width^2)/2 RTV=(TV at Day 15)/(TV at Day 1) T/C(%)=(average RTV value of the test liquid administration group)/(average RTV value of the control group)×100
Human ovarian cancer cell line (A2780) was subcutaneously implanted into the right flank of 7-week-old male BALB/cA Jcl-nu/nu mice, and was used in the same manner as in Test Example 1. […] Further, the test liquid of Compound-I was prepared by adjusting its dose to 16 mg/kg/day.
The effect of the combined administration was also statistically determined in the same manner as in Test Example 1. […] FIG. 9 and Table 14 show the results. Further, the change in the body weight over time was evaluated as an index of toxicity in the same manner as in Test Example 1.

[6] = system: Human stomach cancer cell line (NCI-N87); assay: Potentiation of antitumor effect of paclitaxel, NCI-N87 subcutaneous implant in nude mice (Test Example 2); assay type: in vivo, BALB/cA Jcl-nu/nu mice; details: paclitaxel 60 mg/kg/day i.v. day 1, 8
Protocol: In the figure, the asterisk represents a result having a statistically significant difference compared with the single-drug administration group. FIG. 1 and Table 10 show the results. […] Ltd.) was prepared to enable administration at a paclitaxel dose of 60 mg/kg/day. Further, test liquids for the groups receiving only Compound-I were prepared to enable administration at Compound-I doses of 8 mg/kg/day, 16 mg/kg/day, and 24 mg/kg/day. […] In the groups receiving the two drugs, Compound-I was administered at doses of 8 mg/kg/day, 16 mg/kg/day, and 24 mg/kg/day, and paclitaxel was administered at a dose of 60 mg/kg/day. The evaluation was performed in the same manner as in Test Example 1. The effect of the combined administration was also statistically determined in the same manner as in Test Example 1. In the figure and the table, the asterisk represents a result having a statistically significant difference compared with the single-drug administration group. FIG. 3 and Table 11 show the results.

[7] = system: Human ovarian cancer A2780 cell line; assay: Potentiation of antitumor effect of paclitaxel, A2780 subcutaneous implant in nude mice (Test Example 1); assay type: in vivo, BALB/cA Jcl-nu/nu mice; details: paclitaxel 60 mg/kg/day i.v. day 1, 8
Protocol: Human ovarian cancer A2780 cell line was subcutaneously implanted into the right flank of 7-week-old male BALB/cA Jcl-nu/nu mice. After the implant, the length (mm) and the width (mm) of the tumor were measured, and the tumor volume (TV) was calculated. Thereafter, the mice were divided into groups so that the average TV is equalized in each group. The day of grouping (n=5) is referred to as Day 0. […] Test liquids for the groups receiving only Compound-I were prepared by diluting Compound-I with 0.5% hydroxypropyl methylcellulose (HPMC) so as to enable administration at a Compound-I dose of 8 mg/kg/day, 16 mg/kg/day, and 24 mg/kg/day. […] In the groups receiving the two drugs, Compound-I was administered at doses of 8 mg/kg/day, 16 mg/kg/day, and 24 mg/kg/day, and paclitaxel was administered at a dose of 60 mg/kg/day. […] In the figure, the asterisk represents a result having a statistically significant difference compared with the single-drug administration group. FIG. 1 and Table 10 show the results.

## N.N.O=C([O-])C1(C(=O)[O-])CCC1.[Pt+2] [Carboplatin, carboplatin, reference compound]
[1]
  RTV day 15 Mean ± SD: 20.99 ± 4.57
  T/C (%): 82%

## COc1cccc2c1C(=O)c1c(O)c3c(c(O)c1C2=O)C[C@@](O)(C(=O)CO)C[C@@H]3O[C@H]1C[C@H](N)[C@H](O)[C@H](C)O1 [Doxorubicine, doxorubicin, reference compound]
[2]
  T/C (%): 45%

## CO[C@H]1C[C@@H]2CC[C@@H](C)[C@@](O)(O2)C(=O)C(=O)N2CCCC[C@H]2C(=O)O[C@H]([C@H](C)C[C@@H]2CC[C@@H](OCCO)[C@H](OC)C2)CC(=O)[C@H](C)/C=C(\C)[C@@H](O)[C@@H](OC)C(=O)[C@H](C)C[C@H](C)/C=C/C=C/C=C/1C [Everolimus, everolimus, reference compound]
[3]
  RTV day 15 Mean ± SD: 1.32 ± 0.11
  T/C (%): 47.3%

## CS(=O)(=O)CCNCc1ccc(-c2ccc3ncnc(Nc4ccc(OCc5cccc(F)c5)c(Cl)c4)c3c2)o1 [Lapatinib, lapatinib, reference compound]
[4]
  RTV day 15 Mean ± SD: 1.37 ± 0.28
  T/C (%): 51%

## CCc1c2c(nc3ccc(OC(=O)N4CCC(N5CCCCC5)CC4)cc13)-c1cc3c(c(=O)n1C2)COC(=O)[C@]3(O)CC [irinotecan, reference compound]
[5]
  RTV day 15 Mean ± SD: 11.92 ± 3.68

## CC(=O)O[C@H]1C(=O)[C@@]2(C)[C@H]([C@H](OC(=O)c3ccccc3)[C@]3(O)C[C@H](OC(=O)[C@H](O)[C@@H](NC(=O)c4ccccc4)c4ccccc4)C(C)=C1C3(C)C)[C@]1(OC(C)=O)CO[C@@H]1C[C@@H]2O [paclitaxel, reference compound]
[6]
  RTV day 15 Mean ± SD: 1.09 ± 0.40
  T/C (%): 32%
[7]
  RTV day 15 Mean ± SD: 6.96 ± 1.41
  T/C (%): 27%
